Source: publication PMC12226733, “Evolution of iGluR ligand specificity, polyamine regulation, and ion selectivity inferred from a placozoan epsilon receptor” (Communications Biology, 2025)
“And” between values parts separate entries of the source, which are not always exact repeats. Identical values can stand only once. Like-named read-outs stand apart in the source and are kept apart here.

Legend:
GluE1αA D646A = settings: single recordings c1-c7, AVG c8
From the text: To further elucidate the nature of internal polyamine block in GluE1αA, we performed outside-out membrane patch clamp experiments in wildtype and mutant channels. […] Current-voltage (I-V) relationships were converted to conductance-voltage (G-V) plots and fit with a single permeant blocker model to estimate both the dissociation constant for Spm at 0 mV (Kd(0mV)) and the voltage dependency of block, as previously described[46],[47].
(§1) HEK-293T/17 cells (ATCC) were maintained in MEM supplemented with GlutaMAX and 10% fetal bovine serum (FBS) at 37 °C and 5% CO2. […] Transient transfections were carried out 48 h post-plating using the calcium phosphate precipitation method. After 6–8 hours, cells were washed twice with PBS and maintained in fresh medium. Cells transfected with mammalian GluA2 cDNA (plasmid vector described above) were returned to an incubator at 37 °C for 24–48 hours and cells transfected with Epsilon GluE1αA were incubated at 28 °C for 48–72 hours. In cells co-transfected with TARP-γ2, 30 μM NBQX was included in the medium to minimize AMPAR/auxiliary-induced cytotoxicity. All constructs were co-transfected with a plasmid encoding enhanced green fluorescent protein (eGFP) to identify transfected cells. Electrophysiology responses were recorded from outside-out patches excised from transfected cells. Recording pipettes were composed of borosilicate glass (3 to 6 megaohm, King Precision Glass) coated with dental wax to reduce electrical noise. All recordings were performed using Axopatch 200B amplifier (Molecular Devices, LLC). Current records were filtered at 5 or 10 kHz and sampled at 25–50 kHz. Series resistance (3 to 12 megaohms) was compensated by 95%. Recordings were performed at a range of holding potentials from −100 mV to 100 mV to study polyamine block. Data was acquired using pClamp9 software (Molecular Devices, LLC). All experiments were performed at room temperature. All chemicals were purchased from Sigma-Aldrich, unless otherwise indicated. External solution contained (in mM): 150 NaCl, 5 HEPES, 0.1 CaCl2, 0.1 MgCl, and […], pH 7.3–7.4. […] The osmotic pressure of all solutions was adjusted to 295 to 300 mOsm with sucrose. […] Stocks were thawed on the day of the experiment and used to prepared agonist-containing external solutions. Raw data for all electrophysiology experiments are provided in Supplementary Data 3. Current-voltage (I-V) relationships were fit using Origin 7 (OriginLab) using a ninth order polynomial function to estimate the reversal potential (Vrev).
Agonist-evoked membrane conductance (G) was calculated using the following equation: G=I/(V−Vrev) […]

GluA2 D611A + γ2 = target: T1, GluA2 D611A + γ2 (Homo sapiens, UniProt P42262, D611A); assay: outside-out patch clamp, block by intracellular spermine, HEK-293T/17 cells; assay type: biochemical; settings: for Normalized conductance (Gnorm) AMPA D611A + γ2 / Normalized current (Inorm) AMPA D611A + γ2: single recordings and AVG
T1 construct: expressed in transfected cells; host or cells: HEK-293T/17
T1 sequence (P42262 25-883 D611A): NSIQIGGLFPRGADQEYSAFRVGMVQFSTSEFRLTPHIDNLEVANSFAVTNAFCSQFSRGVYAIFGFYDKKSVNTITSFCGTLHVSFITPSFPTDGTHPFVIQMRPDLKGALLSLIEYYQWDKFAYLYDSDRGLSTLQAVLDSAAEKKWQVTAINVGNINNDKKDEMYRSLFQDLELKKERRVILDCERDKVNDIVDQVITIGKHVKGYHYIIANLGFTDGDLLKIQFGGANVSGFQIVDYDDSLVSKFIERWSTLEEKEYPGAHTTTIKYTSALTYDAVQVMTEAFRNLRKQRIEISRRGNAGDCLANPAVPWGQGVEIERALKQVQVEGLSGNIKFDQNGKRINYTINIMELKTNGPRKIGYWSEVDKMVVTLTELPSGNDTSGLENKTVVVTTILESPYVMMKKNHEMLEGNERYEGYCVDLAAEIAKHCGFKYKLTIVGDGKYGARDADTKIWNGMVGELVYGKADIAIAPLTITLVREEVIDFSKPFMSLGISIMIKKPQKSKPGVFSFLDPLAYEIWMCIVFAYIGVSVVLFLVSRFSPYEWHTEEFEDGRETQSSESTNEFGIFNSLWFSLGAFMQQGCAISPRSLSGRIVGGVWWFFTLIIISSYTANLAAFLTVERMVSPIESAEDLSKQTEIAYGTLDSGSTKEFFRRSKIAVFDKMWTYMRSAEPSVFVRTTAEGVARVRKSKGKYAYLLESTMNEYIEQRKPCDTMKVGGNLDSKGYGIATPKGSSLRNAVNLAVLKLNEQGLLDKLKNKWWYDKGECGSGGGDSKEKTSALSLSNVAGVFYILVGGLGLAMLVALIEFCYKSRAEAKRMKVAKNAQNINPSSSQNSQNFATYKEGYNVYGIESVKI
T1 sequence (Q9Y698 whole entry partner): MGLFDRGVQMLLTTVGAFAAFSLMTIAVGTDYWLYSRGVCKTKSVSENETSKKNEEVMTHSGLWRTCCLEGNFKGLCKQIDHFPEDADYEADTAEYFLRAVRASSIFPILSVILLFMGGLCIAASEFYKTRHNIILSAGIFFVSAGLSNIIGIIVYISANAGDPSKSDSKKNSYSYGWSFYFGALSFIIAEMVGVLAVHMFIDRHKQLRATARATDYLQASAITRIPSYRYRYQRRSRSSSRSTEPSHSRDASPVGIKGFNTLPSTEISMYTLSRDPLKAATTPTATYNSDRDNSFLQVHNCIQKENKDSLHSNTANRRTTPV
Experimental: Parallel experiments were carried out in human GluA2 homotetramers bearing equivalent Q/R/N and +4 site mutations to compare the regulation of voltage-dependent polyamine block within the broader context of mammalian receptors. Experimental design remained the same, except for using 10 mM glutamate as the agonist used to evoke membrane currents (Fig. 7a, d, g, and j). […] Their properties were accordingly compared to wildtype GluA2(Q) co-expressed with TARP-γ2.
as §1
Agonist-evoked membrane conductance (G) was calculated using the following equation: G=I/(V−Vrev)
Conductance-voltage (G-V) relationships were fit using Origin 7 (OriginLab) with the single permeant blocker model as done previously[46]: G=Gmax/1+[Spm]/Kd Where Gmax is the maximal conductance, [Spm] is the internal Spm concentration, and Kd is the dissociation constant.
Kd is defined as: Kd=koff+kperm/kon=sumofexitrates/bindingrate
And redefined as: Kd=g*exp(V/h)+L*exp(V/k) Where h and k are voltage dependencies of g and L, respectively, and at 0 mV: g=koff/konandL=kperm/kon

[1] = target: T2, human GluA2 receptor (wildtype) (Homo sapiens, UniProt P42262); assay type: cell-based; settings: for normalized conductance (G-V, Figure 5g), Avg: Na vs Na
T2 construct: host or cells: CHO-K1
T2 sequence (P42262 25-883): as the sequence (P42262 25-883 D611A) above, with A587D counted along it

GluE1αA S642R = assay type: cell-based, Trichoplax adhaerens; settings: […]; for normalized conductance (G-V, Figure 5g), Avg: Na vs Na; for I-V current, Na vs Na, Avg of recordings: Figure 5b

NCCCNCCCCNCCCN [spermine]
Normalized current (Inorm) (GluE1αA D646A; 20 mV): 0.12 and 0.10 and 0.11
Normalized current (Inorm) (GluE1αA D646A; 30 mV): 0.18 and 0.16 and 0.19
Normalized conductance (Gnorm) (GluE1αA D646A; -100 mV): 1.00
Normalized current (Inorm) (GluE1αA D646A; -100 mV): -1.00
Normalized conductance (Gnorm) AMPA D611A + γ2 (GluA2 D611A + γ2; 0 mV): 0.81 and 0.75 and 0.86 and 0.99 and 0.85
Normalized conductance (Gnorm) AMPA D611A + γ2 (GluA2 D611A + γ2; 10 mV): 0.83 and 0.76 and 0.89 and 0.84
Normalized current (Inorm) AMPA D611A + γ2 (GluA2 D611A + γ2; 10 mV): 0.05 and 0.0569 and 0.06 and 0.0738
Normalized conductance (Gnorm) AMPA D611A + γ2 (GluA2 D611A + γ2; 20 mV): 0.86 and 0.79 and 0.92 and 0.87
Normalized current (Inorm) AMPA D611A + γ2 (GluA2 D611A + γ2; 20 mV): 0.15 and 0.14 and 0.17
Normalized conductance (Gnorm) AMPA D611A + γ2 (GluA2 D611A + γ2; 30 mV): 0.92 and 0.81 and 0.94 and 0.90
Normalized current (Inorm) AMPA D611A + γ2 (GluA2 D611A + γ2; 30 mV): 0.26 and 0.22 and 0.25 and 0.27
Normalized conductance (Gnorm) AMPA D611A + γ2 (GluA2 D611A + γ2; 40 mV): 0.93 and 0.87 and 0.95 and 0.91
Normalized current (Inorm) AMPA D611A + γ2 (GluA2 D611A + γ2; 40 mV): 0.36 and 0.33 and 0.32 and 0.37 and 0.35
Normalized conductance (Gnorm) AMPA D611A + γ2 (GluA2 D611A + γ2; 50 mV): 0.97 and 0.91 and 0.99 and 0.92 and 0.95
Normalized current (Inorm) AMPA D611A + γ2 (GluA2 D611A + γ2; 50 mV): 0.49 and 0.44 and 0.47 and 0.45 and 0.46
Normalized conductance (Gnorm) AMPA D611A + γ2 (GluA2 D611A + γ2; 60 mV): 0.94 and 0.96 and 0.99
Normalized current (Inorm) AMPA D611A + γ2 (GluA2 D611A + γ2; 60 mV): 0.57 and 0.55 and 0.56
Normalized conductance (Gnorm) AMPA D611A + γ2 (GluA2 D611A + γ2; 70 mV): 0.98 and 1.00 and 0.92 and 0.99 and 0.97
Normalized current (Inorm) AMPA D611A + γ2 (GluA2 D611A + γ2; 70 mV): 0.71 and 0.68 and 0.62 and 0.67
Normalized conductance (Gnorm) AMPA D611A + γ2 (GluA2 D611A + γ2; 80 mV): 0.99 and 0.97 and 1.04 and 1.00
Normalized current (Inorm) AMPA D611A + γ2 (GluA2 D611A + γ2; 80 mV): 0.82 and 0.76 and 0.81 and 0.78 and 0.79
Normalized conductance (Gnorm) AMPA D611A + γ2 (GluA2 D611A + γ2; 90 mV): 1.00 and 0.88 and 0.98 and 0.95
Normalized current (Inorm) AMPA D611A + γ2 (GluA2 D611A + γ2; 90 mV): 0.94 and 0.78 and 0.87 and 0.86
Normalized conductance (Gnorm) AMPA D611A + γ2 (GluA2 D611A + γ2; 100 mV): 0.97 and 0.96 and 1.00 and 0.98
Normalized current (Inorm) AMPA D611A + γ2 (GluA2 D611A + γ2; 100 mV): 1.02 and 0.95 and 0.99
Normalized conductance (Gnorm) AMPA D611A + γ2 (GluA2 D611A + γ2; -10 mV): 0.83 and 0.80 and 0.82 and 0.89
Normalized conductance (Gnorm) AMPA D611A + γ2 (GluA2 D611A + γ2; -20 mV): 0.81 and 0.87 and 0.82 and 0.91 and 0.85
Normalized conductance (Gnorm) AMPA D611A + γ2 (GluA2 D611A + γ2; -30 mV): 0.82 and 0.87 and 0.93 and 0.91 and 0.88
Normalized conductance (Gnorm) AMPA D611A + γ2 (GluA2 D611A + γ2; -40 mV): 0.83 and 0.87 and 0.84 and 0.92
Normalized conductance (Gnorm) AMPA D611A + γ2 (GluA2 D611A + γ2; -50 mV): 0.86 and 0.81 and 1.01 and 0.95 and 0.91
Normalized conductance (Gnorm) AMPA D611A + γ2 (GluA2 D611A + γ2; -60 mV): 0.89 and 0.96 and 0.95 and 0.94
Normalized conductance (Gnorm) AMPA D611A + γ2 (GluA2 D611A + γ2; -70 mV): 0.89 and 0.92 and 0.95 and 0.91
Normalized conductance (Gnorm) AMPA D611A + γ2 (GluA2 D611A + γ2; -80 mV): 0.89 and 0.86 and 0.96 and 0.90
Normalized conductance (Gnorm) AMPA D611A + γ2 (GluA2 D611A + γ2; -90 mV): 0.86 and 0.94 and 0.98 and 0.93
Normalized conductance (Gnorm) AMPA D611A + γ2 (GluA2 D611A + γ2; -100 mV): 0.96 and 0.95 and 0.98
Normalized current (Inorm) AMPA D611A + γ2 (GluA2 D611A + γ2; -100 mV): -1.00
h, voltage dependency of block onset (GluA2 D611A + γ2; GluA2 D611A + γ2): −58.8 ± 8.8 mV
k, voltage dependency of block relief (GluA2 D611A + γ2; GluA2 D611A + γ2): 20.8 ± 3.7 mV
Kd (GluA2 D611A + γ2; GluA2 D611A + γ2, 30 µM internal Spm, 10 mM glutamate, read-out: Kd(0mV)): 169 ± 54.6 µM

[Na+] [Na]
normalized conductance (G-V, Figure 5g), Avg ([1]; Vm 0.00): 0.0219
normalized conductance (G-V, Figure 5g), Avg ([1]; Vm 20.00): 0.0142
normalized conductance (G-V, Figure 5g), Avg ([1]; Vm 40.00): 0.0218
normalized conductance (G-V, Figure 5g), Avg ([1]; Vm 60.00): 0.11
normalized conductance (G-V, Figure 5g), Avg ([1]; Vm 80.00): 0.29
normalized conductance (G-V, Figure 5g), Avg ([1]; Vm -20.00): 0.10
normalized conductance (G-V, Figure 5g), Avg ([1]; Vm -40.00): 0.41
normalized conductance (G-V, Figure 5g), Avg ([1]; Vm -60.00): 0.86
normalized conductance (G-V, Figure 5g), Avg ([1]; Vm -80.00): 1.00
I-V current, Na vs Na, Avg of recordings ([1]; Vm 0.00, Figure 5b): -0.00449
I-V current, Na vs Na, Avg of recordings ([1]; Vm 20.00, Figure 5b): 0.00351
I-V current, Na vs Na, Avg of recordings ([1]; Vm 40.00, Figure 5b): 0.00517
I-V current, Na vs Na, Avg of recordings ([1]; Vm 60.00, Figure 5b): 0.02
I-V current, Na vs Na, Avg of recordings ([1]; Vm 80.00, Figure 5b): 0.08
I-V current, Na vs Na, Avg of recordings ([1]; Vm -20.00, Figure 5b): -0.0114
I-V current, Na vs Na, Avg of recordings ([1]; Vm -40.00, Figure 5b): -0.0751
I-V current, Na vs Na, Avg of recordings ([1]; Vm -60.00, Figure 5b): -0.30
I-V current, Na vs Na, Avg of recordings ([1]; Vm -80.00, Figure 5b): -0.69
normalized conductance (G-V, Figure 5g), Avg (GluE1αA S642R; Vm 0.00): 0.18
normalized conductance (G-V, Figure 5g), Avg (GluE1αA S642R; Vm 20.00): 0.18
normalized conductance (G-V, Figure 5g), Avg (GluE1αA S642R; Vm 40.00): 0.22
normalized conductance (G-V, Figure 5g), Avg (GluE1αA S642R; Vm 60.00): 0.29
normalized conductance (G-V, Figure 5g), Avg (GluE1αA S642R; Vm 80.00): 0.33
normalized conductance (G-V, Figure 5g), Avg (GluE1αA S642R; Vm -20.00): 0.24
normalized conductance (G-V, Figure 5g), Avg (GluE1αA S642R; Vm -40.00): 0.36
normalized conductance (G-V, Figure 5g), Avg (GluE1αA S642R; Vm -60.00): 0.62
normalized conductance (G-V, Figure 5g), Avg (GluE1αA S642R; Vm -80.00): 1.00
I-V current, Na vs Na, Avg of recordings (GluE1αA S642R; Vm 0.00): 0.00344
I-V current, Na vs Na, Avg of recordings (GluE1αA S642R; Vm 20.00): 0.06
I-V current, Na vs Na, Avg of recordings (GluE1αA S642R; Vm 40.00): 0.13
I-V current, Na vs Na, Avg of recordings (GluE1αA S642R; Vm 60.00): 0.22
I-V current, Na vs Na, Avg of recordings (GluE1αA S642R; Vm 80.00): 0.33
I-V current, Na vs Na, Avg of recordings (GluE1αA S642R; Vm -20.00): -0.07
I-V current, Na vs Na, Avg of recordings (GluE1αA S642R; Vm -40.00): -0.16
I-V current, Na vs Na, Avg of recordings (GluE1αA S642R; Vm -60.00): -0.32
I-V current, Na vs Na, Avg of recordings (GluE1αA S642R; Vm -80.00): -0.59
